Data as given in patent publication US20120328696A1, “ANTI-PARKINSONIAN COMPOUND ACETYLSALICYLIC ACID MALTOL ESTER” (Hutecs Korea Pharmaceutical Co., Ltd., priority 2008, published 2012).

How the values were obtained:
Assay type in all cases: in vivo
[1] = system: GPx-1 (+/+)- and GPx-1 (−/−)-mice; assay: Rota-rod test after MA; settings: PKC inhibitors intra-striatal (chelerythrine 0.2 ug/head, rottlerin 3.0 ug/head significant); MA 8 mg/kg i.p. x4; GPx-1 (+/+) and (−/−) mice
Method: (§1) The mice received four times of MA (8 mg/kg, ip) or saline as a 2 hr-time interval. Chemicals (AME, EBS, and PKC inhibitors) were administrated for 5 consecutive days (twice daily), and were given 2 times at 4 hr and 30 min before the first MA injection as shown in the experimental schedule. Animals were sacrificed at 4 hrs and 3 days after the final MA administration.
The apparatus (Ugo Basile model 7650, Comerio, VA, Italy) consisted of a base platform and a rotating rod with a nonslippery surface. The rod was placed at a height of 15 cm from the base. The rod, 30 cm in length, was divided into 5 equal sections by 6 opaque disks (so that the subjects cannot be distracted by one another) To assess motor performance, the mice first trained on the apparatus 2 minutes at a constant rate of 4 r.p.m. per 30 s prior to the test. The test was performed 30 minutes after training and an accelerating paradigm was applied, starting from a rate of 4 r.p.m. to a maximum speed of 40 r.p.m., then the rotation speed was kept constant at 40 r.p.m. for a maximum of 300 s. The duration for which the animal could maintain balance on the rotating drum was measured as the rotarod latency, with a maximal cut-off time of 300 s.

[2] = system: GPx-1 (+/+)- and GPx-1 (−/−)-mice; assay: Locomotor activity after MA; settings: PKC inhibitors intra-striatal (chelerythrine 0.2 ug/head, rottlerin 3.0 ug/head significant); MA 8 mg/kg i.p. x4; GPx-1 (+/+) and (−/−) mice
Method: as §1
Locomotor activity was measured for 30 min 3 days after the last MA administration using an automated video-tracking system (Noldus Information Technology, Wagenin, The Netherlands). Four test boxes (40×40×30 cm high) were operated simultaneously by an IBM computer. Mice were studied individually during locomotion in each test box, where they were adapted for 5 min before starting the experiment. […] The distance traveled in cm by the animals in horizontal locomotor activity was analyzed. Data were collected and analyzed between 09:00 and 17:00 h (Kim et al., 2001).

[3] = system: GPx-1 (+/+)- and GPx-1 (−/−)-mice; assay: MA-induced hyperthermia (rectal temperature); settings: PKC inhibitors intra-striatal (doses of Table 1); MA 8 mg/kg i.p. x4; GPx-1 (+/+) and GPx-1 (−/−) mice
Method: as §1
Rectal temperature was measured in the MA- or saline-treated mice. Measurement was performed at constant daytime intervals starting at 9:00 A.M. to avoid the influence on circadian variations. Rectal temperature was measured by inserting a thermometer probe lubricated with oil at least 3 cm into the rectum of the mice. To prevent sudden movements occurring especially in MA-treated mice, animals were gently handled with a wool glove while their tail was moved to allow the probe insertion. This was done to prevent the effects of restrain stress on rectal temperature. When the attempt to insert probe was not successful (i.e., sudden movements of the animal or the need to restrain the mouse), the animal was excluded from the groups.

O=c1cc(O)cc(/C=C/c2ccc(O)c(O)c2)o1 [hispidin]
effect on MA-induced impairment in rota-rod performance [1]: did not affect MA-induced behavioral impairments | effect on MA-induced impairment in locomotor activity [2]: did not affect MA-induced behavioral impairments | effect on MA-induced hyperthermia [3]: did not show any significant effect

Cn1c2ccccc2c2c3c(c4c5ccccc5n(CCC#N)c4c21)CNC3=O [Go 6976]
effect on MA-induced impairment in rota-rod performance [1]: did not affect MA-induced behavioral impairments | effect on MA-induced impairment in locomotor activity [2]: did not affect MA-induced behavioral impairments | effect on MA-induced hyperthermia [3]: did not show any significant effect
